Measured values: patent US8178713B2, “Sulfur-containing phospholipid derivatives” (Pronovo Biopharma Norge AS, priority 2002, dated 2012)
Marks after values point to notes of the source that are not given here.

Legend:
male Wistar rats [1] = test: Effect of esterified and non-esterified TTA on plasma lipids, fed for 6 days; assay type: in vivo, rat; conditions: for plasma Triacylglycerol / plasma Cholesterol: fed at equimolar doses of TTA, 1 mmole/day/kg body weight; for plasma Triacylglycerol: control (0.5% CMC) 1.20 ± 0.35; for plasma Cholesterol: control (0.5% CMC) 1.84 ± 0.25
Excerpt: (§1) Male wistar rats (4-5 rats in each treatment group) were fed TTA, TTA-PC or TTA-TAG at equimolar doses of TTA (1 mmole/day/kg body weight) for 6 days. Control rats received only 0.5% CMC. The rats were sacrificed and evaluated for lipid lowering effects, increased fatty acid oxidation, and activity of key mitochondrian enzymes, carnitine palmitoyltransferase-II, 3-hydroxy-3-methylglutharyl-CoA synthase and fatty acyl-CoA oxidases.
(§2) Male Wistar Charles River rats weighing 200-250 g at the start of the experiment were housed in metal wire cages in a temperature (22±1° C.) and light-controlled (light from 7.00 a.m. to 7.00 p.m.) room. They were given free access to chow and water. They were fed a Standard Laboratory Rat Chow R-34-EWOS-ALAB (EWOS Sweden) grower rat maintenance chow. Two rats were housed per cage. The animals were acclimatized for at least 5 days before the start of the experiments. Weight gain and food intake were recorded daily. TTA and esterified TFAs (1,2-Di(1,2-Di(tetradecylthioacetoyl)-sn -glycero-3-phosphocholine (TTA-PC) and Glyceryl 1,2,3-Tri(tetradecylthioacetate) (triacylglycerol) (TTA-TAG)) were suspended in 0.5% carboxymethylcellulose (CMC) and administered by gastric intubation in a final volume of 0.8-1.2 ml once a day for 6 days.
At the end of the experiments the animals were anaesthetized with Fluorane (0.4 ml/100 g body weight) and cardiac puncture was performed to obtain blood samples in EDTA containing vacutainers. Plasma was prepared and triacylglycerol and cholesterol were measured using the Monotest enzymatic kit (Boehringer Mannheim, Germany).

male Wistar rats [2] = test: Effect of esterified and non-esterified TTA on hepatic triacylglycerol content; assay type: in vivo, rat; conditions: 6 days; for hepatic Triacylglycerol content: fed 1 mmole TTA/day/kg body weight, control 3.71 ± 0.50
Excerpt: as §1, §2

[3] = system: Palmitoyl-CoA oxidation in rat liver homogenate; test: Palmitoyl-CoA oxidation in rat liver homogenate after feeding; assay type: in vivo; conditions: fed 1 mmole TTA/day/kg, 6 days, control 0.75 ± 0.06
Excerpt: as §1
(§3) Male Wistar Charles River rats weighing 200-250 g at the start of the experiment were housed in metal wire cages in a temperature (22±1° C.) and light-controlled (light from 7.00 a.m. to 7.00 p.m.) room. They were given free access to chow and water. […] Weight gain and food intake were recorded daily. […]
(§4) Freshly isolated livers from individual male wistar rats, were homogenised in ice-cold sucrose buffer (0.25 M sucrose, 10 mM HEPES (pH 7.4) and 2 mM EDTA). […] Acid soluble products were measured in post-nuclear fractions, using [1-^14C]-palmitoyl-CoA (Radiochemical Centre, Amersham, England) as substrates as described in literature.^15 Carnitine palmitoyltransferase-II activities were measured in the mitochondrial fraction essentially as described by Bremer^16 and 3-hydroxy-3-methylglutharyl-CoA synthase was measured according to Clinkenbeard et al.^17 in the post-nuclear fraction. […]

[4] = system: mitochondrial carnitine palmitoyltransferase-II; test: Mitochondrial carnitine palmitoyltransferase-II activity after feeding; assay type: in vivo, rat; conditions: mitochondrial fraction of liver; fed 1 mmole TTA/day/kg, 6 days; control 8.32 ± 1.42
Excerpt: as §1, §3, §4

[5] = system: 3-Hydroxy-3-methylglutharyl-CoA synthase; test: 3-Hydroxy-3-methylglutharyl-CoA synthase activity in rat liver homogenate after feeding; assay type: in vivo; conditions: fed 1 mmole TTA/day/kg, 6 days; for 3-Hydroxy-3-methylglutharyl-CoA synthase Enzyme activity: rat liver homogenate, control 28.23 ± 4.43
Excerpt: as §1
Male Wistar Charles River rats weighing 200-250 g at the start of the experiment were housed in metal wire cages in a temperature (22±1° C.) and light-controlled (light from 7.00 a.m. to 7.00 p.m.) room. They were given free access to chow and water. They were fed a Standard Laboratory Rat Chow R-34-EWOS-ALAB (EWOS Sweden) grower rat maintenance chow. Two rats were housed per cage. The animals were acclimatized for at least 5 days before the start of the experiments. Weight gain and food intake were recorded daily. […]
Freshly isolated livers from individual male wistar rats, were homogenised in ice-cold sucrose buffer (0.25 M sucrose, 10 mM HEPES (pH 7.4) and 2 mM EDTA). […] Acid soluble products were measured in post-nuclear fractions, using [1-^14C]-palmitoyl-CoA (Radiochemical Centre, Amersham, England) as substrates as described in literature.^15 Carnitine palmitoyltransferase-II activities were measured in the mitochondrial fraction essentially as described by Bremer^16 and 3-hydroxy-3-methylglutharyl-CoA synthase was measured according to Clinkenbeard et al.^17 in the post-nuclear fraction. Fatty acyl-CoA oxidase was measured in the post-nuclear fraction by the coupled assay described by Small et al.^18 The production of hydrogen peroxide was measured by monitoring the increase in dichlorofluorescein absorbance in the presence of palmitoyl-CoA.

Fatty acyl-CoA oxidase = Fatty acyl-CoA oxidase activity in rat liver homogenate after feeding; assay type: in vivo; conditions: fed 1 mmole TTA/day/kg, 6 days, control 16.50 ± 4.74
Excerpt: as §1, §3, §4

Row | Compound | plasma Triacylglycerol (male Wistar rats [1]) | plasma Cholesterol (male Wistar rats [1]) | hepatic Triacylglycerol content (male Wistar rats [2]) | Palm-CoA oxidised [3] | carnitine palmitoyltransferase-II Enzyme activity [4] | 3-Hydroxy-3-methylglutharyl-CoA synthase Enzyme activity [5] | Fatty acyl-CoA oxidase Enzyme activity (Fatty acyl-CoA oxidase) | decrease in plasma triacylglycerol and cholesterol levels compared to the control (largest decrease) (male Wistar rats [1]; fed 1 mmole TTA/day/kg) | decrease in the hepatic triacylglycerol level compared to the control (largest decrease) (male Wistar rats [2]; fed 1 mmole TTA/day/kg) | increased 3-hydroxy-3-methylglutharyl-CoA synthase activity relative to that after feeding non-esterified TTA [5]
1 | CCCCCCCCCCCCCCSCC(=O)OCC(COC(=O)CSCCCCCCCCCCCCCC)OC(=O)CSCCCCCCCCCCCCCC [TTA-TAG, 1,2,3-Tritetradecylthioacetoyl-sn-glycerol] | 0.56 ± 0.21^a mmol/L | 1.18 ± 0.12^a mmol/L | 2.88 ± 0.50^a μmol/mg protein | 1.37 ± 0.08^a nmol/mg/min | 17.88 ± 4.37^a nmol/mg/min | 40.35 ± 6.16^a nmol/mg/min | 49.87 ± 22.51^a nmol/mg/min | – | – | –
2 | CCCCCCCCCCCCCCSCC(=O)OC[C@H](COP(=O)([O-])OCC[N+](C)(C)C)OC(=O)CSCCCCCCCCCCCCCC [TTA-PC, 1,2-ditetradecylthioacetoyl-sn-glycero-3-phosphocholine] | 0.47 ± 0.21^a,b mmol/L | 0.74 ± 0.20^a mmol/L | 2.53 ± 0.43^a μmol/mg protein | 1.39 ± 0.15^a nmol/mg/min | 31.96 ± 2.63^a,b nmol/mg/min | 97.77 ± 20.51^a,b nmol/mg/min | 129.48 ± 15.08^a,b nmol/mg/min | 60% | 30% | more than three times as large
